Experimental data as given in ChEMBL document CHEMBL3507680, “University of Dundee, Gates Library screen for HepG2 cell viability”.

Test: Human HepG2 cell viability assay in 384 well format
Format: toxicity, cell-based
Design: dose 125 nL, time 70.5 hour; cytotoxicity at 70.5 h: concentration not given beside the values
Conditions: HepG2 cells, read-out: Inhibition

## O=C(C1CCOC1)N1CC[C@@H](O)[C@@H]1Cc1ccccc1 (stereo partly specified)
  cytotoxicity at 70.5 h: -12.1%

## CC(C)CN1CCC2(CCN(C(=O)c3ccc(F)cc3)CC2)C1=O
  cytotoxicity at 70.5 h: -5.58%

## C[C@H]1C(=O)NC[C@H]2CN(Cc3ccccc3)C[C@H]21
  cytotoxicity at 70.5 h: -2.5%

## O=C1CC2(CCCCN2C(=O)c2ccsc2)CN1CC1CC1 (stereo unspecified)
  cytotoxicity at 70.5 h: 8.93%

## CN(C)CCN1CCCC12CCN(C(=O)c1cnccn1)CC2
  cytotoxicity at 70.5 h: 6.16%

## CCC(CO)NC(=O)c1ccc2ccc(N(C)CC3CC3)n2c1 (stereo unspecified)
  cytotoxicity at 70.5 h: 3.39%

## COCC1CN(S(C)(=O)=O)Cc2ncn(CC3CC3)c21 (stereo unspecified)
  cytotoxicity at 70.5 h: -6.83%

## O=C(NC[C@H]1OC[C@@H]2CCN(C(=O)c3ccco3)C[C@@H]21)C1CC1
  cytotoxicity at 70.5 h: -6.37%

## CC(C)CC(=O)N1CCCn2cnc(CN3CCCC3=O)c2C1
  cytotoxicity at 70.5 h: -4.92%

## CNC(=O)c1cc2c(nc1NC(C)C)CCN(C(=O)NC(C)C)CC2
  cytotoxicity at 70.5 h: -10.9%

## Cc1nccc([C@@H]2C[C@@H]3CCN(S(C)(=O)=O)C[C@H]3O2)n1
  cytotoxicity at 70.5 h: -10%

## Cc1noc(C2CCC3(CCN(C(=O)c4c(C)noc4C)CC3)O2)n1 (stereo unspecified)
  cytotoxicity at 70.5 h: -5.47%

## O=C1CCCN1Cc1ncn2c1CN(C(=O)c1cccc(F)c1)CCC2
  cytotoxicity at 70.5 h: -13.4%

## O=C(O)c1ccccc1-n1cc(CN2CCC(c3cc[nH]n3)C2)cn1 (stereo unspecified)
  cytotoxicity at 70.5 h: -2.77%

## CN(C)CC(=O)N1CCCC1c1ccccn1 (stereo unspecified)
  cytotoxicity at 70.5 h: -3.81%

## Cc1ccc(C2CCCN(S(C)(=O)=O)C2)nc1 (stereo unspecified)
  cytotoxicity at 70.5 h: -2.08%

## COCCC(=O)N1CCCC1c1nc(C)c2c(n1)N(C)C(=O)CC2 (stereo unspecified)
  cytotoxicity at 70.5 h: -3.97%

## Cc1nccc(C2CCCN(S(=O)(=O)N3CCOCC3)C2)n1 (stereo unspecified)
  cytotoxicity at 70.5 h: 19.2%

## Cc1cccc(-c2nccnc2C2CCN(C)CC2)c1C
  cytotoxicity at 70.5 h: 0.0925%

## CN1CCN(c2ncccn2)CC1C(N)=O (stereo unspecified)
  cytotoxicity at 70.5 h: 36.7%

## Cc1cccc(CNC(=O)CC2CCN(C(=O)C(C)C)CC2)n1
  cytotoxicity at 70.5 h: 6.37%

## CC(C)Nc1n[nH]c2nc(C3CCN(C(=O)c4ccccn4)C3)ccc12 (stereo unspecified)
  cytotoxicity at 70.5 h: 8.59%

## CN(C)S(=O)(=O)N1CC(c2ccnc(Nc3ccccn3)n2)C1
  cytotoxicity at 70.5 h: -5.03%

## Cn1cc(CN2CCCCC2c2ccc(-c3cnn(C)c3)nc2)cn1 (stereo unspecified)
  cytotoxicity at 70.5 h: -8.29%

## CN(C)c1nccc(C2CN(S(C)(=O)=O)C2)n1
  cytotoxicity at 70.5 h: -1.11%

## Cc1csc(Nc2cc(C3CN(c4ccncn4)C3)nc(C)n2)n1
  cytotoxicity at 70.5 h: -8.67%

## O=C(NCC1CCOCC1)c1cc(-c2cccnc2)c2cnccc2n1
  cytotoxicity at 70.5 h: -8.58%

## CCCn1ncc(C(=O)NC(C)c2c(C)nn(CC)c2C)c1C (stereo unspecified)
  cytotoxicity at 70.5 h: -8.47%

## COCC(=O)NCc1cnc(C)nc1-c1cn(C)c2ccc(OC)cc12
  cytotoxicity at 70.5 h: -7.48%

## COc1ccccc1N1CC(NC(=O)Cn2cc(C(C)C)nn2)CC1=O (stereo unspecified)
  cytotoxicity at 70.5 h: -9.11%

## CCNC(=O)C1(Cc2cc(-c3ccccc3)no2)CCCN(C(C)=O)C1 (stereo unspecified)
  cytotoxicity at 70.5 h: 10.5%

## Cc1cc(C)n(C2CCN(S(=O)(=O)N3CCOCC3)CC2)n1
  cytotoxicity at 70.5 h: -6.85%

## Cc1cc(-c2nccs2)nc(C2CCN(Cc3ccccn3)CC2)n1
  cytotoxicity at 70.5 h: -3.72%

## COCCNc1ncc(-c2cccc(OC)c2)c(-c2nccn2C)n1
  cytotoxicity at 70.5 h: -7.42%

## CNc1cnc(CC2COCCN(Cc3ccccc3)C2)cn1 (stereo unspecified)
  cytotoxicity at 70.5 h: -2.53%

## CNc1cnc(CC2COCCN(Cc3cccc(C)n3)C2)cn1 (stereo unspecified)
  cytotoxicity at 70.5 h: -2.94%

## CNc1cc(C2CN(Cc3cccnc3NC)CCO2)nc(C)n1 (stereo unspecified)
  cytotoxicity at 70.5 h: -2.49%

## CNc1cnc(CC2COCCN(CCOc3ccccc3)C2)cn1 (stereo unspecified)
  cytotoxicity at 70.5 h: -1.63%

## COCCN1CCC1c1cc(NC2CCCC2)nc(C)n1 (stereo unspecified)
  cytotoxicity at 70.5 h: -5.31%

## O=c1[nH]cc(N2CCCCC2)c(=O)[nH]1
  cytotoxicity at 70.5 h: -3.72%

## CNc1ncccc1CN1CCN(C)CC(C(=O)N(C)C)C1 (stereo unspecified)
  cytotoxicity at 70.5 h: 14.6%

## CC(=O)N1CCCC(c2nc(N(C)C)ncc2-c2ccccc2)C1 (stereo unspecified)
  cytotoxicity at 70.5 h: 3.58%

## CCN(CC)S(=O)(=O)N1C[C@@H](O)[C@H](Oc2cccc(F)c2)C1
  cytotoxicity at 70.5 h: -6.35%

## CC(=O)Nc1ccc(S(=O)(=O)N2CCOC(Cn3ccnc3)C2)cc1 (stereo unspecified)
  cytotoxicity at 70.5 h: -4.79%

## O=S(=O)(c1ccccc1)N1CCOCC(Cc2cccnc2)C1 (stereo unspecified)
  cytotoxicity at 70.5 h: -3.24%

## COCCNC(=O)C1(CCCc2cccnc2)CCCN1C (stereo unspecified)
  cytotoxicity at 70.5 h: 13.5%

## CNc1cccc(C2CCN(C(C)=O)CC2)n1
  cytotoxicity at 70.5 h: -5.62%

## CCC(=O)N1CCCC(c2nc(N(C)C)ncc2-c2ccc(F)cc2)C1 (stereo unspecified)
  cytotoxicity at 70.5 h: 3.25%

## Cc1ncsc1C(=O)N1CCC(O)(Cn2c(C)cc3ccncc32)CC1
  cytotoxicity at 70.5 h: -0.305%

## Cc1cc(C(=O)N2CCC(O)(Cn3c(C)cc4ccncc43)CC2)on1
  cytotoxicity at 70.5 h: -0.77%

## CN1C[C@@H](C(=O)N2CCOCC2)[C@@]2(CCc3ccccc3C(=O)N2)C1
  cytotoxicity at 70.5 h: -1.75%

## O=C(c1cccnc1)N1Cc2ccccc2OCC1Cn1ccnc1 (stereo unspecified)
  cytotoxicity at 70.5 h: 9.81%

## Cc1csc2c(C3CCCN(C(=O)CCn4cncn4)C3)nc(C)n12 (stereo unspecified)
  cytotoxicity at 70.5 h: 1.05%

## Cc1csc2c(C3CCCN(C(=O)CCn4ccnc4)C3)nc(C)n12 (stereo unspecified)
  cytotoxicity at 70.5 h: 17.3%

## Cc1csc2c(C3CCCN(C(=O)CCCn4cncn4)C3)nc(C)n12 (stereo unspecified)
  cytotoxicity at 70.5 h: 2.61%

## CC(C(=O)N1CCCC1)n1nc(-c2cccs2)cc(N)c1=O (stereo unspecified)
  cytotoxicity at 70.5 h: 5.25%

## CC(C(=O)N1CCOCC1)n1nc(-c2cccs2)cc(N)c1=O (stereo unspecified)
  cytotoxicity at 70.5 h: 2.02%

## CCCn1nc(C)c(CN(CCN(C)C)Cc2ccccn2)c1C
  cytotoxicity at 70.5 h: 12.9%

## CCn1nc(C)c(CN(CCCN(C)C)Cc2ccccn2)c1C
  cytotoxicity at 70.5 h: 21.3%

## COc1ccc(CN2CCCCC2c2n[nH]cc2-c2cc(C)no2)cc1 (stereo unspecified)
  cytotoxicity at 70.5 h: 11%

## CN(C)c1ncc2c(O)nc(C3CCNCC3)cc2n1
  cytotoxicity at 70.5 h: -6.95%

## CN(C)c1ncc(I)c(C2CCCN2C)n1 (stereo unspecified)
  cytotoxicity at 70.5 h: 1.48%

## COc1cccc(CN2CCC3(CCN(C(=O)[C@H]4CCCO4)CC3)C2)c1
  cytotoxicity at 70.5 h: -4.99%

## Cc1ccc(C(=O)N2CCC3(CC2)CC(N2CCOCC2)C3)cc1
  cytotoxicity at 70.5 h: -12.7%

## O=C(C1CCCC1)N1CCC2(CC1)COCCN2CC1CC1
  cytotoxicity at 70.5 h: -12.4%

## Cc1cccc(CN2C(=O)CCC23CCN(c2ncc(F)cn2)CC3)n1
  cytotoxicity at 70.5 h: -5.55%

## Cc1nc(CN2CCC3(CC2)NC(=O)CC3c2ccccc2)cs1 (stereo unspecified)
  cytotoxicity at 70.5 h: -2.14%

## COCCN1CCCC12CCN(C(=O)CC1CCCC1)CC2
  cytotoxicity at 70.5 h: 3.49%

## O=C1CC2(CCN(CC3CC3)C2)CN1c1cccc(F)c1 (stereo unspecified)
  cytotoxicity at 70.5 h: 6.96%

## CN(C)C(=O)N1CCOCC2(CCN(c3ccccn3)C2)C1 (stereo unspecified)
  cytotoxicity at 70.5 h: -5.46%

## CS(=O)(=O)N1CCOC2(CCCN(c3cnccn3)C2)C1 (stereo unspecified)
  cytotoxicity at 70.5 h: -6.97%

## CCOC[C@H]1CC[C@H]2[C@H](CCN2C(=O)c2ccncc2F)O1
  cytotoxicity at 70.5 h: -8.92%

## CN(C)C(=O)N1CCOCC2(CCN(c3ncccn3)C2)C1 (stereo unspecified)
  cytotoxicity at 70.5 h: -5.25%

## CN1CCN(CCO)C(=O)C12CCN(Cc1ccsc1)CC2
  cytotoxicity at 70.5 h: -8.5%

## Cc1ccc(C(=O)N2CCC3(CC2)CCN(CCN(C)C)C3=O)cn1
  cytotoxicity at 70.5 h: -8.77%

## Cc1cccc(CN2C(=O)C[C@H]3[C@@H]2CCN3CC2CC2)n1
  cytotoxicity at 70.5 h: -2.5%

## Cc1ccc(CN2Cc3nnn(C)c3C(COCCN(C)C)C2)s1 (stereo unspecified)
  cytotoxicity at 70.5 h: -4.13%

## CO[C@@H]1CN(Cc2scnc2C)[C@@H]2CCCO[C@@H]21
  cytotoxicity at 70.5 h: -4.62%

## c1ccc(CN2CCC3(CC2)CCN(Cc2cccs2)C3)nc1
  cytotoxicity at 70.5 h: 0.064%

## c1ccc(CN2C[C@@H]3CCCO[C@@H]3[C@H](Nc3ccccn3)C2)nc1
  cytotoxicity at 70.5 h: -7.21%

## Cc1cc(C)nc(NCCC(=O)NCCn2ccnc2C)n1
  cytotoxicity at 70.5 h: 3.01%
